Assay results reported in patent publication US10933043B2, “Methods of treating neurodevelopmental diseases and disorders” (Deakin University, priority 2014, dated 2021).
Entries after “also recorded” stand apart in the source; their conditions may differ.

Tests used:
[1] = system: neurons in the somatosensory cortex; test: Dendritic length of neurons in the somatosensory cortex of treated mice; assay type: in vivo, mouse; conditions: BPA exposed mice with 10-HDA treatment
primary cortical culture = test: Primary cortical cell cultures of male mouse embryonic foetuses: dendritic length and spine densities; assay type: cell-based
Description: Primary cortical culture was prepared from male mouse foetuses at embryonic day 15.5. Specifically, the effects of BPA and 10-HDA on dendritic length and spine densities were assessed. Four test groups were assessed, mice treated with BPA, mice treated with 10-HDA, mice treated with BPA and 10-HDA, and a vehicle control. Ten neurons were measured and the experiments were duplicated.

aromatase = test: Aromatase immunohistochemistry in human neuroblastoma SH-SY5Y cells exposed to BPA with or without 10-HDA; assay type: cell-based; conditions: for effect on BPA-induced changes of aromatase expression pattern and neurites: 25 μg/L BPA + 1 mM 10 HDA
Description: FIG. 1: Effects of BPA and 10-HDA on aromatase expression in human neuroblastoma SH-SY5Y cells. Under normal conditions, SH-SY5Y cells express aromatase which is a membrane bound protein in endoplasmic reticulum, and appears as green punctate staining eventually distributed within the cell by immunohistochemistry. In the presence of 25 μg/L bisphenol A the aromatase became aggregates. The effects of bisphenol A can be ameliorated by addition of 10HDA. (a) +0 μg/L BPA (Vehicle)—Clear staining of aromatase (green) evenly distributed in the cytoplasm and along the neurites, as tiny “dots”. A lot of healthy cells evenly distributed over the surface area of the coverslip. B-tubulin (red) is highly expressed throughout the cytoplasm and neurites. […] A decrease in 13-tubulin expression was also observed in most cells that have lost their neurites. […] (c) +25 μg/L BPA+1 mM 10 HDA—Good neurite growth and even aromatase distribution throughout the cytoplasm was observed.
Human neuroblastoma SHY-SY-5Y cells were cultured were cultured in Dulbecco's Modified Eagle Medium supplemented with 10% heat-inactivated Fetal Bovine Serum, 1% penicillin and 1% L-Glutamine at 37° C. in a humidified atmosphere of 95% air and 5% CO2. The localization of aromatase in these cells can be detected using immunohistochemistry with antibody specific to aromatase. Under normal conditions, aromatase appears as punctuate staining throughout the cells, as it is a membrane bound protein in the endoplasmic reticulum.

[2] = system: differentiated mouse motor neuronal NSC-34 cells; test: Protection of NSC-34 cells from toxic BPA exposure, MTT assay; assay type: cell-based; conditions: 1 mM compound, 500 ng/ml of BPA, MTT assay 72 hours later
Description: To compare the respective activities of trans and cis 10-HDA 1 mM respectively of cis or trans 10-HDA in the presence of 500 ng/ml of BPA (toxic level) was added to differentiated mouse motor neuronal NSC-34 cells. Cell survival was determined by MTT assay 72 hours later.

BPA exposed mice = test: 10-HDA treatment of BPA exposed mice: social interaction and spontaneous grooming; assay type: in vivo, mouse
Description: As described in Example 2, mice with autistic-like behaviour were generated by mating female wild type FVBN mice with male CYP19-GFP mice and followed by subcutaneous injection of 50 […] of BPA on gestational days 10.5 to 14.5.
After weaning, control and BPA exposed pups were administered 10-HDA daily (0 and 500 μg/kg/day; dissolved in saline) by intraperitoneal injection for a maximum period of 6 weeks. Six litters were initially studied after 3 weeks of daily treatment for anxiety, memory, social interaction (FIG. 4A) and spontaneous grooming.
Data collection was conducted by investigators who were blind to the respective genotypes or treatment of any given animal. Two criteria were assessed as the basis for the behavioural studies, social interaction, and spontaneous grooming activity.
(§1) With regard to the social interaction study, the test mouse was placed in a social test box, a three-chambered clear plastic box with doorways in the dividing walls to allow access into each chamber. Each side-chamber contained a wire cage. The test mouse was evaluated over three sessions. In session 1, the test mouse was placed in the middle chamber and allowed to explore all 3 chambers for 10 min. In session 2, an unfamiliar same sex and age mouse (stranger 1) was enclosed in the wire cage either side of the central chamber, and the test mouse was allowed to explore the entire social test box for a period of 10 min. In session 3, a new unfamiliar mouse was placed in the previously empty wire cage such that the test mouse has a choice between the first, now familiar, already-investigated mouse (stranger 1) and the novel unfamiliar mouse (stranger 2). Mouse movements were recorded and tracked using the TopScan video tracking system. Durations in each chamber, time spent sniffing each wire cage, and the number of transitions between chambers were analysed.
Spontaneous Grooming activity was used as a measure of repetitive activity. The spontaneous grooming of the mice were recorded by the TopScan video tracking system during the session 1 or the 3 chamber studies described above. The duration and frequency of grooming were the parameters of measurements and analysed blind.
The male animals were then re-administered with either vehicle or 10-HDA as described above for 3 weeks, and subjected to behavioural studies again (FIG. 4C).

[3] = system: aromatase cells in the amygdala; test: Patch clamping of aromatase cells in the amygdala in brain slices of treated mice; assay type: in vivo, mouse
Description: After behaviour studies, the animals were sacrificed and electrophysiological data were gathered from the brain slices by patch clamping of aromatase cells in the amygdala.

mice = test: In utero BPA exposure of mice: offspring social interaction and stereology neuron counts; assay type: in vivo, mouse
Description: BPA (50 μg/kg) was thus administered to pregnant mice mid-gestation (i.e. embryonic days 10.5 to 14.5). […] A further study was conducted to examine the effects of BPA exposure on numbers of aromatase-GFP positive neurons in utero (FIG. 3). The medial amygdala is involved in social interaction and highly expressed aromatase.
as §1

[4] = BPA, male mouse embryonic day 15.5 cortical neurons

O=C(O)/C=C/CCCCCCCO [10-HDA, 10-hydroxy-2-decenoic acid]
dendritic length of the neurons [1]: restored the dendritic length of the neurons in the somatosensory cortex to normal length
effect against BPA on spine density and dendritic length (primary cortical culture; BPA and 10-HDA): reverse or protect against the effect of BPA
neurites and spines formation (primary cortical culture; primary cortical culture): has the capacity to stimulate neurites and spines formation
effect on BPA-induced changes of aromatase expression pattern and neurites (aromatase; SH-SY5Y cells): can protect against the denaturing effect of bisphenol A on aromatase
effect on BPA-induced changes of aromatase expression pattern and neurites (aromatase; SH-SY5Y cells, listed as 10HDA): ameliorates the effects of BPA on the expression pattern of aromatase and neurites
cell survival (protection against BPA toxicity) [2]: exhibits neuroprotective effects
social interaction deficit and autistic-like behaviour (BPA exposed mice; BPA exposed animals, 10-HDA 500 μg/kg/day intraperitoneal daily, 3 weeks): could ameliorate the social interaction deficit and autistic-like behaviour
excessive grooming (BPA exposed mice; BPA exposed male offspring, 10-HDA treatment 3 weeks): ameliorated
social interaction after treatment withdrawal (BPA exposed mice; BPA-exposed male animals, treatments withdrawn for 3 months): withdrawal led to presentation of social interaction deficit
resistance of the neurons ([3]; BPA exposed mice with 10-HDA treatment): restored resistance to normal

CC(C)(c1ccc(O)cc1)c1ccc(O)cc1 [BPA, bisphenol A]
dendritic length of neurons (primary cortical culture; [4]): decreased
spine density (primary cortical culture; [4]): decreased
ASD-like behaviours (mice; BPA 50 μg/kg to pregnant mice embryonic days 10.5 to 14.5, WT male offspring): exhibit ASD-like behaviours
time spent with the stranger mice (social interaction) (mice; BPA 50 μg/kg to pregnant mice embryonic days 10.5 to 14.5, male offspring vs vehicle exposed male or BPA exposed female offspring): significantly less time
numbers of aromatase-GFP positive neurons (mice; BPA exposure in utero, standard Stereology method): significantly reduced
fewer neurons in the medial amygdala (mice; male offspring exposed to BPA): 13.5%
neurites (aromatase; 25 μg/L BPA, SH-SY5Y cells): Some populations of cells are starting to lose their neurites
β-tubulin expression (aromatase; 25 μg/L BPA, SH-SY5Y cells that have lost their neurites): decrease
aromatase localization/staining pattern (aromatase; 25 μg/L BPA, SH-SY5Y cells, immunohistochemistry): aromatase forms aggregate and will lose its function; also recorded: could denature aromatase in vitro; also recorded: Aromatase aggregates start to form
grooming (BPA exposed mice; 50 μg/kg/day of BPA exposed male offspring): excessive grooming
resistance of the neurons ([3]; BPA exposure, patch clamping of brain slices): reduced the resistance of the neurons

O=C(O)/C=C\CCCCCCCO [cis 10-HDA]
cell survival (protection against BPA toxicity) [2]: does not protect against BP toxicity
